“Also recorded” adds a separate entry of the source.
How the values were obtained:
[1] = test system: P-glycoprotein; test: P-glycoprotein substrate behaviour inferred from resistance of SKVBL cells; assay type: cell-based, human
Description: (§1) Human non-small cell lung carcinoma cells, A549, were maintained in RPMI 1640 containing 10% fetal bovine serum and 1% penicillin-streptomycin (Gibco Laboratories, Grand Island N.Y.) at 37° C. in 7% CO2. The Taxol-resistant cell line A549-T12 was selected for resistance to Taxol and maintained in a final concentration of 12 nM drug (21). Human ovarian carcinoma cells SKOV3 and the MDR variant SKVBL (obtained from Dr. V. Ling) were maintained in α-mem plus ribonucleotides, deoxynucleotides, 15% fetal bovine serum and 1% penicillin-streptomycin (Gibco Laboratories) at 37° C. in 5% CO2. SKVBL cells were maintained in […] vinblastine (Sigma Chemical Co.).
(§2) Taxol-resistant and sensitive cell lines were seeded into 12-well plates at a density of 5×10^4 cells per well and allowed a period of 12 h for attachment prior to treatment. Cells were exposed to 10-fold serial dilutions of each compound (10^-10 to 10^-6 M) for 72 h. Cells were then trypsinized and counted (Coulter counter model ZF0031, Coulter Corp., Miami, Fla.). The IC50 was determined by plotting cell number against log of the drug concentration and this was used to determine the concentration of compound resulting in 50% growth inhibition compared to untreated cells. Each cell line was assayed in a minimum of 3 independent experiments with each compound and the results expressed as the mean IC50.
(§3) The cytotoxic efficacy of eleutherobin and its derivatives (FIG. 6) was evaluated in two drug sensitive human cancer cell lines and their Taxol-resistant counterparts. The results are summarized in Table I in order of decreasing potency. […] The Taxol-resistant cell line SKVBL overexpresses high levels of P-glycoprotein (22). […] The only difference between the two agents is the enantiomeric relationship in the carbohydrate (2'-acetylarabinose) sector (FIG. 6). […] This cell line expressed high levels of MDR1 resulting in Taxol-resistance equal or greater than 1666 -fold compared to the Taxol-sensitive SKOV3 cell line.

[2] = test system: A549-T12 (Taxol-resistant A549); test: Cytotoxicity by counting cells after 72 h, Taxol-resistant cells; assay type: cell-based, human
Description: as §1, §2, §3
(§4) ^a Cytotoxicity determined by counting cells after 72 h drug exposure.

[3] = test system: Human ovarian carcinoma cells SKOV3; test: Cytotoxicity by counting cells after 72 h, Taxol-sensitive cells; assay type: cell-based; details: SK-OV-3, 72 h
Description: as §1, §2, §4

[4] = test system: tubulin / microtubule protein; test: Tubulin polymerization by turbidity at 350 nm in the absence of GTP; assay type: biochemical, calf; details: 10 μM, 37 °C, relative to 10 μM Taxol (100%)
Description: Eleutherobin and its derivatives were synthesized as described (18,19). Taxol was obtained from the Drug Development Branch, National Cancer Institute (Bethesda, Md.). All compounds were dissolved in dimethyl sulfoxide (Sigma Chemical Co., St. Louis, Mo.) at stock concentrations of 5 mM and stored at -20° C. All control samples contained an equal volume of DMSO. GTP was obtained from Sigma Chemical Co. And dissolved in sterile distilled water at a concentration of 10 mM and stored at -20° C. Microtubule protein was purified from calf brains by two cycles of temperature-dependent assembly and disassembly (20) and stored in liquid nitrogen prior to use. The anti-mouse β-tubulin monoclonal antibody T-4026 was obtained from Sigma Chemical Co.
The ability of each compound to polymerize tubulin was evaluated by recording the change in turbidity of microtubule protein at 350 nm for 80 min in a spectrophotometer (UVIKON, Research Instruments Int., SD, Calif.). One mg of purified microtubule protein was diluted in assembly buffer containing 0.1 M MES, 1 mM EGTA, 0.5 mM MgCl2 and 3 M glycerol, pH 6.6. All compounds were evaluated at a concentration of 10 μM at 37° C. […] Microtubule stability was assessed by the addition of 10 mM Ca^++. changes from t=0-10 min were used to calculate initial slopes from the linear portion of each curve. These values were used to calculate the activity of each compound (relative to the activity of Taxol which was assigned a value of 100%).
The polymerization activity of these compounds was also assessed by determining the slope of the linear portion of each curve at A350 nm (t=0-10 min), and expressing this relative to Taxol (which was assigned a value of 100% (FIG. 8). The order of activity of eleutherobin and derivatives using this method, corroborates the results obtained from cytotoxicity studies.

[5] = test system: microtubules; details: cited from earlier work

Compound: CO[C@]12C=C[C@](C)(O1)[C@@H](OC(=O)/C=C/c1cn(C)cn1)C[C@H]1C(C)=CC[C@H](C(C)C)[C@H]1/C=C\2CO[C@@H]1OC[C@@H](O)[C@@H](O)[C@@H]1OC(C)=O [Eleutherobin]
- P-glycoprotein substrate (in words) [1]: excellent substrates for P-glycoprotein
- fold resistance relative to the parental cell line ([2]; A549-T12 vs A549, 4320 min): 1.9 fold
- IC50 ([2]; Homo sapiens, Lung Carcinoma A549, Resistant (A549-T12), 72 h, mean of at least three independent experiments): 12.2 nM
- cross-resistance in A549-T12 (in words) ([2]; Taxol-resistant, not expressing P-glycoprotein): neither eleutherobin nor neo-eleutherobin displayed cross-resistance; also recorded: neither of these compounds showed cross-resistance
- IC50 [3]: 9.5 nM
- polymerization activity relative to Taxol [4]: 94%
- effect on microtubules (in words) [5]: potentiates the assembly of stable microtubules resistant to depolymerization; also recorded: promotes the polymerization of stable microtubules

— patent US6172205A, “Synthetic process toward total synthesis of eleutherobin and its analogues and uses thereof” (The Trustees of Columbia in the City of New York, priority 1998, dated 2001)
